Measurements published in PMC9513230, “Inhibition of Plasmodium falciparum Hsp70-Hop partnership by 2-phenylthynesulfonamide” (Frontiers in Molecular Biosciences, 2022).

Legend:
PfHop [1] = biological target: T1, PfHop (Plasmodium falciparum, UniProt Q8ILC1); experiment: SPR equilibrium binding to immobilized PfHop; details: SPR, ligand PfHop immobilized, 25°C; read-out: KD
T1 construct: His; made in house; host or cells: E. coli XL1 Blue
T1 sequence (Q8ILC1 1-564): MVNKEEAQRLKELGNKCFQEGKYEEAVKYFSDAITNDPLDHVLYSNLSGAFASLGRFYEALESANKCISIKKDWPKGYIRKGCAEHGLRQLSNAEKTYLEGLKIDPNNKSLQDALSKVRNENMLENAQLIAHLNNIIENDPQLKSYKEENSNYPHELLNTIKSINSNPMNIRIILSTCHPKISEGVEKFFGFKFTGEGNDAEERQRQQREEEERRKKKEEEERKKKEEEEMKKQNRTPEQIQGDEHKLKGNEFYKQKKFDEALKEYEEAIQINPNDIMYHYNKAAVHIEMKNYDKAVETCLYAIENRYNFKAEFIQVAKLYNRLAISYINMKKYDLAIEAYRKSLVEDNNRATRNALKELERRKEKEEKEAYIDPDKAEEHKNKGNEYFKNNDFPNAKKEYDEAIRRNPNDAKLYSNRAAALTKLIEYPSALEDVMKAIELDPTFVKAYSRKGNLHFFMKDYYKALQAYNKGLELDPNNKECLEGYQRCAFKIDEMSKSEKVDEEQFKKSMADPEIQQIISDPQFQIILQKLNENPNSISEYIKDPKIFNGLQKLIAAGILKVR
Procedure: The steady-state equilibrium binding kinetics for the inhibitors on either PfHsp70-1 or PfHop were investigated using BioNavis Navi 420A ILVES multi-parametric surface plasmon resonance (MP-SPR) system (BioNavis, Finland) following a previously described method ([Lebepe et al., 2020]; [Chakafana et al., 2021]). Briefly, filter-sterilized de-gassed PBS (4.3 mM Na2HPO4, 1.4 mM KH2PO4, 137 mM NaCl, 3 mM KCl, 0.005% (v/v) Tween 20, and 20 mM EDTA; pH 7.4) was used as running buffer for the assay. The ligand (0.1 μg/ml of PfHsp70-1/PfHop) was immobilized onto a carboxymethyl dextran (CMD 3-D) gold sensor chip through amine coupling. PES was injected (flow rate of 50 μl/min) as analyte at varying final concentrations (0, 1.25, 2.5, 5, 10, 20 nM). […] Steady-state equilibrium was achieved after allowing the interaction to occur for 8 min at 25°C, followed by dissociation for 4 min at 25°C, respectively. The data generated were analyzed using Data Viewer (BioNavis, Finland) after subtraction of baseline (signals generated on the chip surface without protein immobilized and buffer without inhibitor). The resultant sensorgrams were analyzed to determine the equilibrium binding affinities using Trace Drawer software version 1.8 (Ridgeview Instruments; Sweden).

PfHsp70-1NBD = PfHsp70-1NBD (Plasmodium falciparum, UniProt Q8IB24); experiment: SPR equilibrium binding to immobilized PfHsp70-1NBD; details: ligand PfHsp70-1NBD immobilized, 25°C
Procedure: The steady-state equilibrium binding kinetics for the inhibitors on either PfHsp70-1 or PfHop were investigated using BioNavis Navi 420A ILVES multi-parametric surface plasmon resonance (MP-SPR) system (BioNavis, Finland) following a previously described method ([Lebepe et al., 2020]; [Chakafana et al., 2021]). Briefly, filter-sterilized de-gassed PBS (4.3 mM Na2HPO4, 1.4 mM KH2PO4, 137 mM NaCl, 3 mM KCl, 0.005% (v/v) Tween 20, and 20 mM EDTA; pH 7.4) was used as running buffer for the assay. The ligand (0.1 μg/ml of PfHsp70-1/PfHop) was immobilized onto a carboxymethyl dextran (CMD 3-D) gold sensor chip through amine coupling. […] Similarly, as controls nucleotides (5 µM ATP/ADP) and a known P. falciparum Hsp70 inhibitor, (−)-Epigallocatechin-3-gallate (EGCG; [Zininga et al., 2017b]) were similarly injected at varying final concentrations (0, 1.25, 2.5, 5, 10, 20 nM) over the chip surface. […] The data generated were analyzed using Data Viewer (BioNavis, Finland) after subtraction of baseline (signals generated on the chip surface without protein immobilized and buffer without inhibitor). The resultant sensorgrams were analyzed to determine the equilibrium binding affinities using Trace Drawer software version 1.8 (Ridgeview Instruments; Sweden).

[2] = biological target: PfHsp70-1-PfHop association (Plasmodium falciparum, UniProt Q8IB24+Q8ILC1); experiment: ELISA for the direct association of PfHsp70-1 and PfHop; assay type: biochemical
Procedure: An enzyme-linked immunosorbent assay (ELISA) was used to validate the effect of PES on the direct association of PfHsp70-1 and PfHop following a previously described protocol ([Mabate et al., 2018]). Briefly, ligand (5 μg/ml of PfHsp70-1) suspended in 5 mM sodium bicarbonate (NaHCO3) at pH 9.5 was noncovalently immobilized onto a 96 well plate overnight at 4 C. BSA (5 μg/ml) was used as a ligand for the negative control. The wells were washed with 150 µl TBST which contains (Tris-buffered saline- Tween (TBST; 20 mM Tris HCl, pH 7.5, 500 mM NaCl supplemented with 0.1% Tween 20) prior to blocking with 5% fat-free milk in TBST and incubated at 25 C for 1 h. The wells were washed using TBST for a total of 10 min. Varying concentrations (0–1,000 nM) of analyte PfHop were added to the wells and incubated for 2 h at 25 °C. To remove the unbound analyte, the plate was washed with 150 µl TBST three times before the addition of rabbit-raised α-PfHop antibody (1: 4,000) followed by incubation at 25°C for 1 h. Subsequently, the wells were washed with 150 µl TBST three times before the addition of 100 µl secondary HRP conjugated goat-raised α-rabbit antibody (1: 4,000) and incubated for 45 min at 25 °C. The substrate, 3,3’5,5’ –tetramethylbenzidine (TMB) (Bio Scientific, United States) was added into the wells and incubated for 2 min at 25 C. Color development was monitored by recording absorbance readings at 370 nm at 5 min time intervals for 30 min using a SpectraMax M3 Microplate reader (Molecular Devices, United States). To determine the effect of the inhibitor, the assay was conducted in the presence of 25 µM) of PES. […] Furthermore, the assay was repeated interchanging the ligand and analyte to validate data reproducibility. The generated data were analyzed taking into account the background signal generated by BSA which served as the control protein. The absorbance values obtained at the highest concentration of each analyte were averaged to represent maximum (100%) binding. Titration curves were then generated using GraphPad Prism 9.3.1 (GraphPad Software, United States). The relative binding affinities of PES under each experimental setting were normalized relative to the affinity estimated for assay conducted in the absence of nucleotide at the highest concentration of PfHop. Statistical analysis was conducted to establish significant differences at p < 0.05 using a student t-test.

[3] = system: Asexual P. falciparum strain 3D7 parasites; experiment: Parasite growth inhibition assay (SYBR Gold); assay type: cell-based; details: Plasmodium falciparum; P. falciparum 3D7, asexual blood stage, 96 h, n = 3; read-out: IC50 parasite growth
Procedure: Parasite growth without any drug present, which allowed the parasites to proliferate unrestricted, was used as negative drug control. SYBRTM Gold DNA stain (Invitrogen, ThermoFisher Scientific Inc., Germany) was used to measure the proliferation of the parasites compared to the controls as previously described ([[…] al., 2004]). Fluorescence was measured using a TECAN Spark® multimode microplate reader (Tecan Trading AG, Switzerland) and the data were analyzed using SigmaPlot, version 12 (Systat Software Inc., IL, United States).

PfHop [4] = biological target: T1, PfHop; experiment: Intrinsic fluorescence analysis of PfHop tertiary structure; details: PfHop 4 µM with 20 µM PES, excitation 295 nm; apo state 339 nm
Procedure: The effect of PES on the tertiary structural conformation of recombinant PfHsp70-1 and PfHop proteins relative to the nucleotide-dependent conformations were assessed by monitoring intrinsic fluorescence as previously described ([Zininga et al., 2016]; [Lebepe et al., 2020]). […] The assay was repeated in the presence of 20 µM PES. Fluorescence emission spectra were monitored at 300–400 nm after initial excitation at 295 nm. The spectra data collected from seven spectral scans were averaged and processed taking into account the baseline (effect of buffer in the absence of protein).

PfHsp70-1 = experiment: MDH heat-induced aggregation suppression (holdase chaperone activity); assay type: biochemical, Plasmodium falciparum; details: MDH aggregation at 51°C, 360 nm; PES 5-100 nM
Procedure: In the current study, we investigated the effect of PES on the holdase chaperone activity of PfHsp70-1. The assay was initiated by adding 1,25 µM MDH and 0,75 µM PfHsp70-1 to the assay buffer (50 mM Tris-HCl, 100 mM NaCl; pH 7.4) and heated to 51°C. Aggregation of MDH was monitored as a function of light scattering at 360 nm over 30 min at 51°C in a SpectraMax M3 (Molecular Devices, United States) microplate spectrometer. The assay was repeated at varying final concentrations (5, 15, 25, 50, 100 nM) of PES. The chaperone function of PfHsp70-1 under various experimental conditions was compared to the activity of the chaperone recorded in the absence of nucleotide. Statistical analysis was conducted using a student t-test and a p < 0.05 represented functionally significant variation.

Sequence of PfHsp70-1-PfHop association (Q8IB24 entry or part of it, one chain of several): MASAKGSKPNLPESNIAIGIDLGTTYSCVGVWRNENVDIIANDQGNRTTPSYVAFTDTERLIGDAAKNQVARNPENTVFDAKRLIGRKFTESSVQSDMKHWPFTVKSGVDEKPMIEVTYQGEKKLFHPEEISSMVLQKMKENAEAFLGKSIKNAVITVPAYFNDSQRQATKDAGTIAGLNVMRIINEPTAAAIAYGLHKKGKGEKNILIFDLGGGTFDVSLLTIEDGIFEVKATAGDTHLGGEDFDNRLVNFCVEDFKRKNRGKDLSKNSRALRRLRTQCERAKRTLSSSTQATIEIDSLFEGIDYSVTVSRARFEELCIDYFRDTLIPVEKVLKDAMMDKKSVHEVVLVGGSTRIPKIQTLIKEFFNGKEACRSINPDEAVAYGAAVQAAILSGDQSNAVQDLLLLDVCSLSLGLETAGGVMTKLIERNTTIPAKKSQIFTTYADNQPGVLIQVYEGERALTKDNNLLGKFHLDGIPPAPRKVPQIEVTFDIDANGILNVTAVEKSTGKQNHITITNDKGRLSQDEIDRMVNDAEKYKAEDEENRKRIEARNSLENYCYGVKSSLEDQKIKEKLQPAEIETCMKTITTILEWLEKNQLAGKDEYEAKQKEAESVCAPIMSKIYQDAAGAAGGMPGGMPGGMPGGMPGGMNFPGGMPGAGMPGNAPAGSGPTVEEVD
Sequence of PfHsp70-1NBD (Q8IB24 entry or part of it): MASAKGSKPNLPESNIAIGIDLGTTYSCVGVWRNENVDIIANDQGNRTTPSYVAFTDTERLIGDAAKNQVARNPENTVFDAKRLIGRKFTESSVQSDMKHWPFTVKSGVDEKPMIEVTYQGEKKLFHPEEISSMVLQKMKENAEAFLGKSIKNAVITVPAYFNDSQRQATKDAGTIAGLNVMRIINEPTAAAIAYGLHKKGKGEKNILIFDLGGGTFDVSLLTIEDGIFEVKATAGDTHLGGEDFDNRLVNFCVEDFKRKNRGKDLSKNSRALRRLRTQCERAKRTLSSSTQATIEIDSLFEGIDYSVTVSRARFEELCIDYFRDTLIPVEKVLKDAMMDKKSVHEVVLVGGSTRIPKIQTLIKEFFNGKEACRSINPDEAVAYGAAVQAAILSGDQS

NS(=O)(=O)C#Cc1ccccc1 [PES, 2-Phenylthynesulfonamide]
Kd (PfHop [1]): 0.707 ± 0.07 µM | Kd (PfHsp70-1NBD): 7.39 ± 0.09 µM | Effect on association of PfHsp70-1 and PfHop ([2]; 25 µM nucleotide or inhibitor): abrogated the interaction of PfHsp70-1 and PfHop | IC50 ([2]; ligand PfHop, analyte PfHsp70-1): 0.0381 ± 0.0036 µM | IC50 ([2]; ligand PfHsp70-1, analyte PfHop): 0.0324 ± 0.0021 µM | IC50 [3]: 38.7 ± 0.7 µM | Fluorescence emission peak (PfHop [4]): 340 nm | Effect on holdase chaperone activity of PfHsp70-1 (PfHsp70-1): inhibited the chaperone activity of PfHsp70-1 in a concentration-dependent fashion
